Measured values reported in patent US20230381349A1, “METHODS AND COMPOSITIONS FOR IMAGING AND TREATING CANCER” (WASHINGTON UNIVERSITY, priority 2020, published 2023).

Key:
KI tumor = test: Treatment efficacy in KI xenograft model; type: in vivo, mouse; settings: for median survival: KI mice
Protocol: A KI xenograft model was used to monitor tumor growth trends and treatment efficacy of CuNPs-ECL1i-Gem. 10 days after tumor implantation, mice were randomized into 5 groups (n=5/group): (1) CuNPs-ECL1i-Gem (Cu mass: 10 mg/kg body weight, Gem: 3.4±0.8 mg/kg body weight, I.V. injection, twice per week); (2) CuNPs-ECL1i (same CuNPs-NT dose as (1), I.V. injection, twice per week); (3) gemcitabine 7 mg/kg body weight (I.V. injection, twice per week); (4) gemcitabine 100 mg/kg body weight (I. P. injection, once per week); (5) saline (100 μL, I.V. injection, twice per week). For the 2nd treatment study, the mice started dose administration at 7 days post implantation. The dose regimens of CuNPs-NT-Gem and CuNPs-ECL1i-Gem were the same as the 1st treatment study. The Cu mass was limited to a dosage of 10 mg/kg for all nanoparticle groups, and the relative loaded gemcitabine dose was 3.4±0.8 mg/kg body weight. […] Tumor volume was calculated as (length×width2)/2. The treatment was continued for 6 successive weeks or until the mice died or were sacrificed and deemed as dead when their tumor volume reached over 2000 mm^3. After treatment, the tumors were collected for H&E staining.

KI cells = test: In vitro cytotoxicity (WST-1 cell viability) assay; type: cell-based; settings: Mus musculus, 72 h, 3 days continuous drug treatment
Protocol: All cells were cultured at 37° C., 5% C02, and 95% humidity.
The KI Cells were seeded into 96-well plates at a density of 5000 cells per well. 24 hrs later, the medium was replaced by fresh medium containing TA-PEG-Gem and Gem at the indicated concentration (range, 0-500 μM), respectively. All experimental incubation conditions were performed at least in triplicate. Cell viability was determined after 3 days of continuous drug treatment using the WST-1 cell cytotoxicity assay (Roche, Basel, Switzerland) following the manufacturer's instruction. Briefly, 10 μl WST-1 reagent was added in each well followed by additional incubation for 4 h. The absorbance at 440 nm was measured using a microplate reader. IC50 was calculated using GraphPad Prism 7.03 software (GraphPad Software, San Diego, CA).

Nc1ccn([C@@H]2O[C@H](CO)[C@@H](O)C2(F)F)c(=O)n1 [Gem, gemcitabine]
median survival (KI tumor; start day 10, high dose 100 mg/kg I.P. once per week): 26 days | median survival (KI tumor; start day 10, low dose 7 mg/kg I.V. twice per week): 25 days | tumor growth effect compared to saline (KI tumor; start day 10, high dose 100 mg/kg I.P.): did not show any treatment benefit | tumor growth effect compared to saline (KI tumor; start day 10, low dose 7 mg/kg I.V.): did not show any treatment benefit | IC50 (KI cells): 19.7 µM
